Test results from article PMC5546590 (Biologics : Targets & Therapy, 2017).

Legend:
electric eel AChE = electric eel AChE (Electrophorus electricus, UniProt O42275); experiment: biochemical
[1] = target: horse butyxylcholinesterase (Equus caballus, UniProt P81908); experiment: biochemical
[2] = Solubility in water of isolated compounds

horse butyxylcholinesterase, sequence (P81908 whole entry): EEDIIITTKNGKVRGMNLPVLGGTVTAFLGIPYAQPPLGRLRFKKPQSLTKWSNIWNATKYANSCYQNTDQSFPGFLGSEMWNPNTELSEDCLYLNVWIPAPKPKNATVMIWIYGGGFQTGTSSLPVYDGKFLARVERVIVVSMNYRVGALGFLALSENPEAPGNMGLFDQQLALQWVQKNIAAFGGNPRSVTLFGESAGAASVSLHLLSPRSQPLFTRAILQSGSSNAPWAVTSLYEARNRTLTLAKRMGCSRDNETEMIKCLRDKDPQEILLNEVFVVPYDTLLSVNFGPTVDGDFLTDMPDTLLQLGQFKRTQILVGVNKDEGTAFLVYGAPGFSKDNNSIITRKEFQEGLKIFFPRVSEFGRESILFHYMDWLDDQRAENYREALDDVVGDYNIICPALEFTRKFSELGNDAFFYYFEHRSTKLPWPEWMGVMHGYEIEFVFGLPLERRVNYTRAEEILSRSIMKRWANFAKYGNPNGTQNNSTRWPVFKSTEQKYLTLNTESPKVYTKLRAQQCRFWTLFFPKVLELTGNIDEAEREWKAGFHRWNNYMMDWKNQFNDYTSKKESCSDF
electric eel AChE, sequence (O42275 24-633): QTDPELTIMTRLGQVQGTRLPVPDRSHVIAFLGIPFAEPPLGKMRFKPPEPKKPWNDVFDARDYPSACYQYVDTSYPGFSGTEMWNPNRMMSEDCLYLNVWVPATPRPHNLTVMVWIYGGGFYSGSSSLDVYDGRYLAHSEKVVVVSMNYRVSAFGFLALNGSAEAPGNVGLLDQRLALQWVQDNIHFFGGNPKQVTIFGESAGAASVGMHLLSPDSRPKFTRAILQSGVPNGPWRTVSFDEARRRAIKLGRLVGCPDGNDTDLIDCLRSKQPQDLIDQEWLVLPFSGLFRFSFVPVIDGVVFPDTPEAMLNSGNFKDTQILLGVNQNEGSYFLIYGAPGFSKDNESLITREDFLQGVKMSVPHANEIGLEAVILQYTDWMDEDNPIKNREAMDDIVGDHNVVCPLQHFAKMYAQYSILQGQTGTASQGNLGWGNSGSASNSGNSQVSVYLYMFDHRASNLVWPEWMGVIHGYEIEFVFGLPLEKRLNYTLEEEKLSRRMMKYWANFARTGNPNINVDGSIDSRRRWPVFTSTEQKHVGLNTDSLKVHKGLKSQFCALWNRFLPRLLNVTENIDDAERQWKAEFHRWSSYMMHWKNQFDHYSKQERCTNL

| SMILES | IC50 (electric eel AChE) [µM] | IC50 [1] [µM] | Solubility in water [2] |
| --- | --- | --- | --- |
| C=C(C)[C@@H]1CC[C@]2(CO)CC[C@]3(C)[C@H](CC[C@@H]4[C@@]5(C)CC[C@H](O)C(C)(C)[C@@H]5CC[C@]43C)[C@@H]12 [Compound 1, betulin] | 1.99 | 10.5 |  |
| CC(C)[C@H](C)CC[C@@H](C)[C@H]1CC[C@H]2[C@@H]3CC=C4C[C@@H](O)CC[C@]4(C)[C@H]3CC[C@]12C [Compound 2, campesterol] | 4.72 | 10.2 | Soluble |
